{"source": "patent US6737383B1", "about": "“Herbicidal oxadiazolidines” (priority 1999, dated 2004)", "key": {"smallflower flatsedge": {"tested_on": "smallflower flatsedge", "assay": "Test B flood test smallflower flatsedge", "type": "in vivo, Cyperus difformis", "in_short": "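Read-out is a visual response score from 0 (no effect) to 10 (complete control), assigned by comparison with untreated controls. Treatment was applied at the 2-leaf stage, and plants stayed in the greenhouse for twelve to sixteen days before scoring.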"}, "blackgrass": {"tested_on": "blackgrass", "assay": "Test B pre/postemergence blackgrass", "type": "in vivo, Alopecurus myosuroides", "in_short": "(§1)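 Herbicidal effect was estimated by eye on a ten-point control scale after plants spent twelve to sixteen days in a greenhouse following soil or foliar treatment. Foliar sprays targeted plants at one to four leaves; all doses were formulated in a non-phytotoxic solvent with surfactant.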"}, "surinam grass": {"tested_on": "surinam grass", "assay": "Test B pre/postemergence surinam grass", "type": "in vivo, Brachiaria decumbens", "in_short": "as §1"}, "bedstraw": {"tested_on": "bedstraw", "assay": "Test B pre/postemergence bedstraw", "type": "in vivo, Galium aparine", "in_short": "as §1"}, "[1]": {"settings": "Postemergence, Rate 62 g/ha, scale 0 to 10, 0 is no effect, 10 is complete control"}, "[2]": {"settings": "Rate 125 g/ha, Postemergence section (flood test species), scale 0 to 10, 0 no effect, 10 complete control"}, "[3]": {"settings": "Rate 125 g/ha, Pre-emergence, flood test species, scale 0 to 10 where 0 is no effect and 10 is complete control"}, "[4]": {"settings": "flood test, listed under Postemergence, Rate 250 g/ha, scale 0 to 10, 0 no effect, 10 complete control"}, "[5]": {"settings": "Postemergence, Rate 250 g/ha, scale 0 to 10, 0 no effect, 10 complete control"}, "[6]": {"settings": "Preemergence, Rate 62 g/ha, scale 0 to 10, 0 is no effect, 10 is complete control"}, "[7]": {"settings": "Preemergence, Rate 125 g/ha, scale 0 to 10 (0 no effect, 10 complete control)"}, "[8]": {"settings": "Preemergence, Rate 250 g/ha, scale of 0 to 10 where 0 is no effect and 10 is complete control"}, "[9]": {"settings": "Preemergence, Rate 500 g/ha, scale 0 (no effect) to 10 (complete control)"}, "[10]": {"settings": "Rate 125 g/ha, Postemergence, scale 0 to 10, 0 no effect, 10 complete control"}, "[11]": {"settings": "Rate 500 g/ha, Postemergence, 0 to 10 scale (0 no effect, 10 complete control)"}, "[12]": {"settings": "Preemergence, Rate 31 g/ha, visual rating, scale 0 to 10 (0 no effect, 10 complete control)"}, "[13]": {"settings": "Rate 31 g/ha, Postemergence, scale 0 to 10"}, "[14]": {"settings": "Preemergence, Rate 62 g/ha, scale of 0 to 10 where 0 is no effect and 10 is complete control"}, "[15]": {"settings": "Preemergence, Rate 125 g/ha, 0 is no effect, 10 is complete control"}, "[16]": {"settings": "Preemergence, Rate 250 g/ha, scale 0 to 10, 0 is no effect, 10 is complete control"}, "[17]": {"settings": "Preemergence, Rate 500 g/ha, scale of 0 to 10 where 0 is no effect and 10 is complete control"}, "[18]": {"settings": "Rate 62 g/ha, Postemergence, scale of 0 to 10 where 0 is no effect and 10 is complete control"}, "[19]": {"settings": "Rate 125 g/ha, Postemergence, scale 0 to 10"}, "[20]": {"settings": "Rate 500 g/ha, Postemergence, scale 0 to 10"}}}
{"molecule": "COc1ccc(-n2c(=O)on(C(=O)N(c3ccc(F)cc3)C(C)C)c2=O)c(C)c1", "note": "[Compound 35]", "values": [{"measurement": "S. Flatsedge plant response rating", "setting": "smallflower flatsedge; [1]", "result": 0}, {"measurement": "S. Flatsedge plant response rating", "setting": "smallflower flatsedge; Pre-emergence, Rate 1000 g/ha, scale 0 to 10 (0 no effect, 10 complete control)", "result": 0}, {"measurement": "S. Flatsedge plant response rating", "setting": "smallflower flatsedge; [2]", "result": 0}, {"measurement": "S. Flatsedge plant response rating", "setting": "smallflower flatsedge; [3]", "result": 0}, {"measurement": "S. Flatsedge plant response rating", "setting": "smallflower flatsedge; Rate 250 g/ha, headed Pre-emergence (flood test species), scale 0 to 10 (0 no effect, 10 complete control)", "result": 0}, {"measurement": "Plant response rating, S. Flatsedge", "setting": "smallflower flatsedge; Rate 500 g/ha, headed Pre-emergence (flood test species), scale 0 to 10 (0 no effect, 10 complete control)", "result": 0}, {"measurement": "S. Flatsedge plant response rating", "setting": "smallflower flatsedge; [4]", "result": 0}, {"measurement": "Blackgrass plant response rating", "setting": "blackgrass; [1]", "result": 0}, {"measurement": "Blackgrass plant response rating", "setting": "blackgrass; [5]", "result": 1}, {"measurement": "Plant response rating, Blackgrass", "setting": "blackgrass; [6]", "result": 0}, {"measurement": "Plant response rating, Blackgrass", "setting": "blackgrass; [7]", "result": 2}, {"measurement": "Plant response rating, Blackgrass", "setting": "blackgrass; [8]", "result": 2}, {"measurement": "Blackgrass plant response rating", "setting": "blackgrass; [9]", "result": 3}, {"measurement": "Blackgrass plant response rating", "setting": "blackgrass; [10]", "result": 0}, {"measurement": "Blackgrass plant response rating", "setting": "blackgrass; [11]", "result": 7}, {"measurement": "B. signalgrass plant response rating", "setting": "surinam grass; [1]", "result": 0}, {"measurement": "B. signalgrass plant response rating", "setting": "surinam grass; [5]", "result": 0}, {"measurement": "Plant response rating, B. signalgrass", "setting": "surinam grass; [6]", "result": 0}, {"measurement": "Plant response rating, B. signalgrass", "setting": "surinam grass; [7]", "result": 0}, {"measurement": "Plant response rating, B. signalgrass", "setting": "surinam grass; [8]", "result": 3}, {"measurement": "B. signalgrass plant response rating", "setting": "surinam grass; [9]", "result": 7}, {"measurement": "B. signalgrass plant response rating", "setting": "surinam grass; [10]", "result": 0}, {"measurement": "B. signalgrass plant response rating", "setting": "surinam grass; [11]", "result": 0}, {"measurement": "Bedstraw plant response rating", "setting": "bedstraw; [1]", "result": 0}, {"measurement": "Bedstraw plant response rating", "setting": "bedstraw; [5]", "result": 3}, {"measurement": "Plant response rating, Bedstraw", "setting": "bedstraw; [6]", "result": 0}, {"measurement": "Plant response rating, Bedstraw", "setting": "bedstraw; [7]", "result": 0}, {"measurement": "Plant response rating, Bedstraw", "setting": "bedstraw; [8]", "result": 0}, {"measurement": "Bedstraw plant response rating", "setting": "bedstraw; [9]", "result": 0}, {"measurement": "Bedstraw plant response rating", "setting": "bedstraw; [10]", "result": 2}, {"measurement": "Bedstraw plant response rating", "setting": "bedstraw; [11]", "result": 6}]}
{"molecule": "CCN(C(=O)n1oc(=O)n(-c2ccc(C)cc2C)c1=O)C1CCCCC1", "note": "[Compound 26]", "values": [{"measurement": "S. Flatsedge plant response rating", "setting": "smallflower flatsedge; [1]", "result": 0}, {"measurement": "S. Flatsedge plant response rating", "setting": "smallflower flatsedge; [2]", "result": 0}, {"measurement": "S. Flatsedge plant response rating", "setting": "smallflower flatsedge; [4]", "result": 0}, {"measurement": "Blackgrass plant response rating", "setting": "blackgrass; [1]", "result": 0}, {"measurement": "Blackgrass plant response rating", "setting": "blackgrass; [5]", "result": 0}, {"measurement": "Blackgrass plant response rating", "setting": "blackgrass; [12]", "result": 0}, {"measurement": "Plant response rating, Blackgrass", "setting": "blackgrass; [6]", "result": 0}, {"measurement": "Plant response rating, Blackgrass", "setting": "blackgrass; [7]", "result": 0}, {"measurement": "Plant response rating, Blackgrass", "setting": "blackgrass; [8]", "result": 0}, {"measurement": "Blackgrass plant response rating", "setting": "blackgrass; [13]", "result": 0}, {"measurement": "Blackgrass plant response rating", "setting": "blackgrass; [10]", "result": 0}, {"measurement": "B. signalgrass plant response rating", "setting": "surinam grass; [1]", "result": 0}, {"measurement": "B. signalgrass plant response rating", "setting": "surinam grass; [5]", "result": 0}, {"measurement": "B. signalgrass plant response rating", "setting": "surinam grass; [12]", "result": 0}, {"measurement": "Plant response rating, B. signalgrass", "setting": "surinam grass; [6]", "result": 0}, {"measurement": "Plant response rating, B. signalgrass", "setting": "surinam grass; [7]", "result": 0}, {"measurement": "Plant response rating, B. signalgrass", "setting": "surinam grass; [8]", "result": 2}, {"measurement": "B. signalgrass plant response rating", "setting": "surinam grass; [13]", "result": 0}, {"measurement": "B. signalgrass plant response rating", "setting": "surinam grass; [10]", "result": 0}, {"measurement": "Bedstraw plant response rating", "setting": "bedstraw; [1]", "result": 0}, {"measurement": "Bedstraw plant response rating", "setting": "bedstraw; [5]", "result": 0}, {"measurement": "Bedstraw plant response rating", "setting": "bedstraw; [12]", "result": 0}, {"measurement": "Plant response rating, Bedstraw", "setting": "bedstraw; [6]", "result": 0}, {"measurement": "Plant response rating, Bedstraw", "setting": "bedstraw; [7]", "result": 0}, {"measurement": "Plant response rating, Bedstraw", "setting": "bedstraw; [8]", "result": 0}, {"measurement": "Bedstraw plant response rating", "setting": "bedstraw; [13]", "result": 0}, {"measurement": "Bedstraw plant response rating", "setting": "bedstraw; [10]", "result": 0}]}
{"molecule": "Cc1ccccc1-n1c(=O)on(C(=O)N(c2ccc(Cl)cc2F)C(C)C)c1=O", "note": "[Compound 195]", "values": [{"measurement": "S. Flatsedge plant response rating", "setting": "smallflower flatsedge; Rate 62 g/ha, headed Pre-emergence (flood test species), scale 0 to 10 (0 no effect, 10 complete control)", "result": 0}, {"measurement": "S. Flatsedge plant response rating", "setting": "smallflower flatsedge; [3]", "result": 0}, {"measurement": "S. Flatsedge plant response rating", "setting": "smallflower flatsedge; Rate 250 g/ha, Pre-emergence, flood-test species, scale 0 to 10, 0 is no effect, 10 is complete control", "result": 0}, {"measurement": "S. Flatsedge plant response rating", "setting": "smallflower flatsedge; Rate 500 g/ha, Pre-emergence, flood test species, scale 0 to 10 (0 no effect, 10 complete control)", "result": 0}, {"measurement": "Blackgrass plant response rating", "setting": "blackgrass; [14]", "result": 0}, {"measurement": "Blackgrass plant response rating (0 to 10 scale)", "setting": "blackgrass; [15]", "result": 1}, {"measurement": "Blackgrass plant response rating", "setting": "blackgrass; [16]", "result": 3}, {"measurement": "Plant response rating, Blackgrass", "setting": "blackgrass; [17]", "result": 6}, {"measurement": "Blackgrass plant response rating", "setting": "blackgrass; [18]", "result": 0}, {"measurement": "Blackgrass plant response rating", "setting": "blackgrass; [19]", "result": 3}, {"measurement": "Plant response rating (0 to 10; 0 is no effect, 10 is complete control), Blackgrass", "setting": "blackgrass; Rate 250 g/ha, Postemergence", "result": 5}, {"measurement": "Blackgrass plant response rating", "setting": "blackgrass; [20]", "result": 6}, {"measurement": "B. signalgrass plant response rating", "setting": "surinam grass; [14]", "result": 0}, {"measurement": "B. signalgrass plant response rating (0 to 10 scale)", "setting": "surinam grass; [15]", "result": 0}, {"measurement": "B. signalgrass plant response rating", "setting": "surinam grass; [16]", "result": 1}, {"measurement": "Plant response rating, B. signalgrass", "setting": "surinam grass; [17]", "result": 6}, {"measurement": "B. signalgrass plant response rating", "setting": "surinam grass; [18]", "result": 0}, {"measurement": "B. signalgrass plant response rating", "setting": "surinam grass; Rate 125 g/ha, Postemergence, scale 0 (no effect) to 10 (complete control)", "result": 0}, {"measurement": "Plant response rating, B. signalgrass", "setting": "surinam grass; Rate 250 g/ha, Postemergence, scale 0 to 10, 0 is no effect, 10 is complete control", "result": 0}, {"measurement": "B. signalgrass plant response rating", "setting": "surinam grass; Rate 500 g/ha, Postemergence, scale 0 to 10, 0 no effect, 10 complete control", "result": 1}, {"measurement": "Bedstraw plant response rating", "setting": "bedstraw; [14]", "result": 0}, {"measurement": "Bedstraw plant response rating (0 to 10 scale)", "setting": "bedstraw; [15]", "result": 0}, {"measurement": "Bedstraw plant response rating", "setting": "bedstraw; [16]", "result": 0}, {"measurement": "Plant response rating, Bedstraw", "setting": "bedstraw; [17]", "result": 2}, {"measurement": "Bedstraw plant response rating", "setting": "bedstraw; [18]", "result": 2}, {"measurement": "Bedstraw plant response rating", "setting": "bedstraw; [19]", "result": 2}, {"measurement": "Bedstraw plant response rating", "setting": "bedstraw; [20]", "result": 7}]}
